Our source for the IC50 values is ChEMBL document CHEMBL2094269, “WEHI/Eskitis Trypanosoma b. brucei screening data”.

“And” between values parts separate entries of the source, which are not always exact repeats. Equal entries are not always repeated.

One test has as its system Trypanosoma brucei brucei. Briefly: microbe, parasite or virus in culture. In kind it is functional, organism-based, STIB 795.
Conditions: not given
As to `CCN1CCS/C1=C\C=C\C1=[N+](CC)CCS1`, the IC50 (as a rule, the point on the concentration scale where inhibition reaches its midpoint) is 0.39 µM and 0.092 µM.
`Cc1ccccc1-c1nnnn1C1CC(=O)C2OCC1O2` (configuration not stated): 4.75 µM corresponded to half-maximal inhibition (IC50).
Still for that read-out and setting: with `CCN1/C(=C/C2=CC(=O)CC(C)(C)C2)Sc2ccccc21` the figure was 5.54 µM; with `Cn1c(-c2ccco2)nn(C2CC(=O)C3OCC2O3)c1=S` (configuration not stated), 3.25 µM.
Same read-out and setting: with `Cc1c(C)n(CC(O)CNCc2ccccc2)c2ccccc12` (configuration not stated) the figure was 7.63 µM.
On the same count and under the same terms, with `O=C1CC(n2nnn(C3CCCCC3)c2=S)C2COC1O2` (configuration not stated) the figure was 5.11 µM and 1.33 µM.
`CCN(CC)c1ccc(CNCCc2c(C)[nH]c3ccccc23)cc1` came in with an IC50 of 3.4 µM.
The same measure, in the same setting: with `Cc1ccc(OCc2nn(C3CC(=O)C4OCC3O4)c(=S)n2C)cc1C` (configuration not stated) the figure was 4.62 µM.
For the compound `COc1ccc(-c2nn(C3CC(=O)C4OCC3O4)c(=S)n2C)cc1OC` (configuration not stated), half-maximal inhibition (IC50) was put at 5.08 µM.
In turn, `Cc1cc2cc3c(cc2c(C)n1)c1ccccc1n3C` yielded an IC50 of 4.73 µM.
Same read-out and setting: with `CN(C)c1ccc(/C=C2\SC(=N)N(c3nccs3)C2=O)cc1` the figure was 6.09 µM and 15.5 µM.

The same test, now with this note: Trypanosoma brucei, STIB 795.
On to `O=c1cc(-c2ccccc2)c2ccc(O)c(O)c2o1`, for which the IC50 is greater than 10.4 µM.
Compound `Cc1cc(N)n2ncc(-c3ccc(Cl)cc3)c2n1` displayed an IC50 greater than 10.4 µM.
Compound `CC(C)COCc1ccc(O)c2ncccc12` showed an IC50 greater than 10.4 µM.
`CCn1c(C)cc(=S)c2ccccc21` displayed an IC50 greater than 10.4 µM.
Regarding `CCCCOc1ccc(C(=O)NNC(=S)NC(=O)CC)cc1`, the 50% inhibitory concentration (IC50) is greater than 10.4 µM.
Take `Cc1ccc(Cl)cc1N1CCN(CCN)CC1`: the concentration for half-maximal inhibition (IC50) was greater than 10.4 µM.
The same measure, in the same setting: with `Cc1ccc(C(=N)NOC(=O)c2ccco2)cc1` the figure was greater than 10.4 µM.
For `COc1ccc(Nc2nccc(-c3cccc(N)c3)n2)cc1`, the IC50 was greater than 10.4 µM.
In turn, `Oc1ccc(CNc2ccccc2F)c2cccnc12` returned an IC50 greater than 10.4 µM.
`O=C1C(C2=C(O)c3ccccc3C2=O)=Nc2ccccc21` showed an IC50 greater than 10.4 µM.
In the case of `Cc1ccc(C(=N)NOC(=O)c2cccs2)cc1`, the IC50 is greater than 10.4 µM.
`COc1ccc(NC2=NC(=O)C(CO)(CO)S2)cc1` displayed an IC50 greater than 10.4 µM.
Compound `Cc1occc1C(=O)O/N=C(\N)c1ccc(Cl)cc1` displayed an IC50 greater than 10.4 µM.
In turn, `Cc1ccc(C(CC(=O)c2ccco2)SCCO)cc1` (configuration not stated) gave an IC50 greater than 10.4 µM.
For `CCC(=O)c1coc2ccc(O)cc12`, the IC50 is greater than 10.4 µM.
On the same count and under the same terms, with `O=C(NO)c1ccccc1C(F)(F)F` the figure was greater than 10.4 µM.
In the case of `N=C(NOC(=O)c1cccc(Cl)c1)c1cccnc1`, the IC50 was greater than 10.4 µM.
Still for that read-out and setting: with `NC(CCCCc1ccccc1)c1cccc2ccccc12` (configuration not stated) the figure was greater than 10.4 µM; with `CN(C)CC(C(=O)c1ccccc1)c1ccccc1` (configuration not stated), greater than 10.4 µM; with `O=NC1=C(c2c(O)[nH]c3ccccc23)CCCC1`, greater than 10.4 µM.
In turn, `CC1CC(NC2CCCCC2)=Nc2ccccc2N1Cc1ccccc1` (configuration not stated) had a concentration for half-maximal inhibition (IC50) greater than 10.4 µM.
The compound `Cn1c(=O)cc(NNc2ccccc2)[nH]c1=O` registered a concentration for half-maximal inhibition (IC50) greater than 10.4 µM.
As for `CCn1nc(-c2ccc(OC)cc2)nc2c(=O)n(C)c(=O)nc1-2`, the IC50 was greater than 10.4 µM.
The compound `COc1cccc(Nc2nc(N)c(C(=O)c3ccccc3F)s2)c1` had an IC50 greater than 10.4 µM.
Turning to `O=C(CSc1nc2[nH]ncc2c(=O)n1-c1ccccc1)Nc1nccs1`, the IC50 is greater than 10.4 µM.
On the same count and under the same terms, with `CCOC(=O)COC1=C(c2ccccc2)C(=O)c2ccccc2C1=O` the figure was greater than 10.4 µM; with `Cn1nc(-c2cccs2)nc2c(=O)n(C)c(=O)nc1-2`, greater than 10.4 µM; with `C=C1N(CCCCN2C(=C)C(C)(C)c3ccccc32)c2ccccc2C1(C)C`, greater than 10.4 µM.
On to `Cc1ccccc1C(=O)/C(C#N)=N/Nc1c(C)n(C)n(-c2ccccc2)c1=O`, for which the IC50 is greater than 10.4 µM.
Still for that read-out and setting: with `O=C(N/N=C/c1ccc(O)c2ncccc12)c1ccco1` the figure was greater than 10.4 µM.
Same read-out and setting: to `O=c1c2ccccc2nc(SCc2cccnc2)n1Cc1ccco1` belongs greater than 10.4 µM; to `CC(=O)N1/C(=C/c2ccncc2)C(=O)c2ccccc21`, greater than 10.4 µM.
Still for that read-out and setting: to `CN(C)CCC1=Cc2cc(Cl)ccc2Sc2ccccc21` belongs greater than 10.4 µM.
Turning to `Cc1ccc2[nH]c3c(c2c1)CCCC3NCCCOc1ccc(F)cc1` (configuration not stated), the concentration for half-maximal inhibition (IC50) was greater than 10.4 µM.
With `CCN(CC)c1ccc(N)c(C)c1`, the half-inhibitory concentration (IC50) is greater than 10.4 µM.
Consider `N=C1C=Cc2ccc(N)c3cccc1c23`, for which the IC50 is greater than 10.4 µM.
The compound `Cc1ncc(C)c2c1[nH]c1ccccc12` displayed an IC50 greater than 10.4 µM.
The same measure, in the same setting: to `CCc1no[c+](-c2ccccc2O)n1C` belongs greater than 10.4 µM.
Same read-out and setting: to `Clc1nn2nnnc2c2ccccc12` belongs greater than 10.4 µM; to `CC1CCc2nc3ccccc3c(N)c2C1` (configuration not stated), greater than 10.4 µM; to `CCc1c(C)nc(SCC#N)c(C#N)c1C`, greater than 10.4 µM.
On the same count and under the same terms, to `CC1=C(C)C(=O)C(c2cccs2)=C(C)C1=O` belongs greater than 10.4 µM; to `Oc1cccc2ccc(Nc3ccccc3)nc12`, greater than 10.4 µM.
`NC(=S)N/N=C/c1sc(=O)[nH]c1Cl` came in with an IC50 greater than 10.4 µM.
The same measure, in the same setting: with `O=C1/C(=N\c2ccccc2)Sc2ccccc21` the figure was greater than 10.4 µM.
The same measure, in the same setting: with `CNc1nsc(C(=O)c2ccc(C)cc2)c1N` the figure was greater than 10.4 µM; with `ON=C(/C=C/c1ccccc1)/C=C/c1ccccc1`, greater than 10.4 µM; with `CC1=C(C#N)C(C)C2=C(c3ccccc3C2=O)N1C` (configuration not stated), greater than 10.4 µM.
The compound `CC(=O)c1ccc2c(c1)[nH]c1cc(C(C)=O)ccc12` showed an IC50 greater than 10.4 µM.
Take `Cc1ccccc1C(=O)O/N=C(\N)c1ccccn1`: the IC50 was greater than 10.4 µM.
As to `Oc1ccc2ccccc2c1/N=N/c1nccs1`, the IC50 is greater than 10.4 µM.
Compound `O=C1C(=O)N(CO)c2ccc(Br)cc21` registered an IC50 greater than 10.4 µM.
On the same count and under the same terms, to `CCn1c(-c2ccccc2Cl)nc2ccccc21` belongs greater than 10.4 µM; to `N/C(=N\OC(=O)c1ccccc1F)c1ccccc1`, greater than 10.4 µM; to `N/C(=N\OC(=O)c1ccc(F)cc1)c1cccnc1`, greater than 10.4 µM.
`CCC(=O)NCCc1nc(-c2ccccc2)cs1` had an IC50 greater than 10.4 µM.
On the same count and under the same terms, to `O=C(/C=C/n1c(=O)oc2ccccc21)c1ccccc1` belongs greater than 10.4 µM; to `ON=C1C=CC(=NNc2nncc3ccccc23)C=C1`, greater than 10.4 µM; to `O=C(/C=C/c1ccc(F)cc1)n1cnc2ccccc21`, greater than 10.4 µM.
The same measure, in the same setting: with `Cc1c(-c2cccc(O)c2)ccc2nc(N)nc(N)c12` the figure was greater than 10.4 µM; with `O=C(Nc1cc(Cl)cc(Cl)c1)c1ccccn1`, greater than 10.4 µM.
Still for that read-out and setting: with `Cc1ccc(OCCn2c(N)nc3ccccc32)cc1` the figure was greater than 10.4 µM; with `Cc1c(-c2ccc(O)c(O)c2)oc2ccccc2c1=O`, greater than 10.4 µM; with `Cc1ccc(O)c(C(=O)CC(=O)c2ccccc2C)c1`, greater than 10.4 µM.
In turn, `O=C1c2ccccc2C2=NS(=O)(=O)c3cccc1c32` registered an IC50 greater than 10.4 µM.
Consider `O=C(CCN1CCC(c2ccccc2)C1)c1ccco1` (configuration not stated), for which the concentration for half-maximal inhibition (IC50) was greater than 10.4 µM.
`CCN(CC)c1cc(C)nc(NCc2ccccc2)n1` yielded an IC50 greater than 10.4 µM.
On the same count and under the same terms, with `COc1ccc(C(=O)O/N=C(\N)c2cccnc2)cc1` the figure was greater than 10.4 µM; with `COc1ccc(/C(C)=N\Nc2nnc(C)c(O)n2)cc1`, greater than 10.4 µM; with `COc1ccc(O)c(/C=N/NC(=O)c2nonc2C)c1`, greater than 10.4 µM.
With `O=c1oc2ccccc2n1Cc1c(F)cccc1Cl`, the IC50 was greater than 10.4 µM.
On the same count and under the same terms, with `COc1ccc(/N=N/c2ccc(O)c3ncccc23)cc1` the figure was greater than 10.4 µM; with `CCCC(CCC)C(=O)Nc1ccc(O)cc1C(=O)O`, greater than 10.4 µM.
Same read-out and setting: to `O=c1[nH]c(NCCCO)nc2sc3c(c12)CCCC3` belongs greater than 10.4 µM.
Same read-out and setting: with `Cc1cc(=O)[nH]c(Nc2ccc(Br)cc2)n1` the figure was greater than 10.4 µM; with `C(=N\Nc1nc(-c2ccccc2)cs1)/c1ccncc1`, greater than 10.4 µM.
`Oc1ccccc1/C=N/Nc1ncc(Cl)cc1Cl` had an IC50 greater than 10.4 µM.
`O=C(Cn1ncc(Cl)c(Cl)c1=O)c1ccccc1` returned an IC50 greater than 10.4 µM.
`Cc1cc(C)c(CCCc2c(C)nc(N)nc2N)cc1C`: the half-maximal inhibitory concentration (IC50) is greater than 10.4 µM.
In turn, `C=CCc1cccc(/C=N/NC(=O)c2nonc2C)c1O` came in with a half-inhibitory concentration (IC50) greater than 10.4 µM.
Take `Cc1ccccc1-c1nnnn1C1CC(=O)C2OCC1O2` (configuration not stated): 4.58 µM corresponded to half-maximal inhibition (IC50).
Same read-out and setting: with `c1ccc(Oc2cccc(-c3nc4ccccc4[nH]3)c2)cc1` the figure was greater than 10.4 µM; with `Cc1cnc(NC(=O)c2ccc(Cl)c(Cl)c2)s1`, greater than 10.4 µM; with `CCOC(=O)Cc1ccc(NCc2ccc(F)cc2)cc1`, greater than 10.4 µM.
Consider `COc1ccc(/C(N)=N/OC(=O)c2cccc(F)c2)cc1`, for which the IC50 was greater than 10.4 µM.
Same read-out and setting: to `CCC(=O)c1ccc(Oc2cc(=O)n(C)c(=O)n2C)cc1` belongs greater than 10.4 µM; to `C/C(=N\NC(=O)c1cccc(Cl)c1)c1ccccc1O`, greater than 10.4 µM.
On the same count and under the same terms, with `Oc1ccccc1/C=N\NC(=S)Nc1ccc(F)cc1` the figure was greater than 10.4 µM; with `CNC(c1ccccc1)C1c2cccc3cccc(c23)C1O` (configuration not stated), greater than 10.4 µM; with `Cc1ccc(C(=O)O/N=C(\N)c2cccnc2)cc1Cl`, greater than 10.4 µM.
For the compound `Cc1cccc(/C=N\Nc2nncc(-c3ccccc3)n2)n1`, the IC50 is greater than 10.4 µM.
In the case of `Cc1ccc(Nc2nn3nnnc3c3ccccc23)c(C)c1`, the IC50 was greater than 10.4 µM.
In the case of `Nc1ncc(CCc2cccc(-c3ccccc3)c2)c(N)n1`, the IC50 was greater than 10.4 µM.
`CC(C)=CCC1(C)C(=O)N(c2ccccc2)c2ccccc21` (configuration not stated) displayed an IC50 greater than 10.4 µM.
As for `C=CCN1C(=O)/C(=N/NC(=S)SC)c2ccccc21`, the 50% inhibitory concentration (IC50) was greater than 10.4 µM.
The compound `CCCCN(CCCC)CCC12CC3CC(CC(C3)C1)C2` showed an IC50 greater than 10.4 µM.
The same measure, in the same setting: with `CC1=C/C(=N\OC(=O)c2ccccc2Cl)CC(C)(C)C1` the figure was greater than 10.4 µM.
On the same count and under the same terms, to `CC(=O)c1nc2ccccc2n1CC(=O)c1ccc(C)cc1` belongs greater than 10.4 µM; to `CCc1ccccc1Nc1cc(C)nc2c(OC)cccc12`, greater than 10.4 µM; to `CCCCC(O)(CCCC)C(=O)NNc1ccc(C)cc1`, greater than 10.4 µM.
For the compound `COc1ccccc1NC(=O)c1cc2ccccc2cc1O`, the IC50 was greater than 10.4 µM.
The compound `CC(C)(C)C(=O)NN=c1c2ccccc2[nH]c2ccccc12` displayed an IC50 greater than 10.4 µM.
The compound `CCN1/C(=C/C2=CC(=O)CC(C)(C)C2)Sc2ccccc21` returned an IC50 of 5.4 µM.
In turn, `Cn1c(-c2ccco2)nn(C2CC(=O)C3OCC2O3)c1=S` (configuration not stated) gave an IC50 of 5.5 µM.
Same read-out and setting: with `Cc1c(C)n(CC(O)CNCc2ccccc2)c2ccccc12` (configuration not stated) the figure was 5.49 µM; with `CCN(CC)c1ccc(CNCCc2c(C)[nH]c3ccccc23)cc1`, 5.01 µM.
Compound `Cc1ccc(OCc2nn(C3CC(=O)C4OCC3O4)c(=S)n2C)cc1C` (configuration not stated) gave an IC50 of 4.31 µM.
In the case of `COc1ccc(-c2nn(C3CC(=O)C4OCC3O4)c(=S)n2C)cc1OC` (configuration not stated), the IC50 came to 4.53 µM.
As to `Cc1cc2cc3c(cc2c(C)n1)c1ccccc1n3C`, 5.19 µM corresponded to half-maximal inhibition (IC50).
`CCCCNc1ccc2cccc(O)c2n1` showed a 50% inhibitory concentration (IC50) greater than 10.4 µM.
On the same count and under the same terms, to `C=CCc1cccc(/C=N/NC(=O)c2cccs2)c1O` belongs greater than 10.4 µM.
